Assay in all cases: growth of human tumour cells (NCI), 48 h
Assay [1] concerns 786-0.
In assay [2] the test system is BT-549.
Assay [3] deals with EKVX.
The test system of assay [4] is HCT-116.
Assay [5] deals with HOP-92.
The subject of assay [6] is M14.
Assay [7] deals with MDA-MB-231.
Assay [8] relates to MDA-N.
Assay [9] relates to Malme-3M.
In assay [10] the test system is NCI-H226.
In assay [11] the test system is NCI-H23.
Assay [12] has as its system OVCAR-8.
Assay [13] concerns PC-3.
Assay [14] deals with SF-268.
Assay [15] concerns SW-620.
Assay [16] concerns U-251.
Assay [17] relates to UACC-62.
Assay [18] has as its system MCF7.
For assay [19], the system named is SR.

Experimental findings from ChEMBL document CHEMBL1201862, “PubChem BioAssay data set” (2004) are described below.

SMILES strings stand for the structures.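 Five concentrations, 48 hours, 96-well plates. GI50 marks 50% less growth.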 Calls of active or inactive are those of the source. Cut-off read from the data, not from the text of the source: active = GI50 up to about 1.1 µM and inactive = higher.

Regarding `COc1c(-c2nc3ccc(N4CCN(C)CC4)nc3[nH]2)cc(OC)c2c1nc(CCl)n2C`, the GI50 in assay [1] was 17.9 µM (inactive); in assay [2], 18.6 µM (inactive); in assay [3], 19.4 µM (inactive); in assay [4], 32.2 µM (inactive); in assay [5], 22.8 µM (inactive); in [6], 16.9 µM (inactive). In addition, the GI50 in [7] is 19.2 µM (inactive); in [8] it was 30.5 µM (inactive); in assay [9] it was 17.5 µM (inactive); in assay [10], 19.9 µM (inactive); in assay [11] it was 20.1 µM (inactive); in assay [12] it was 20.1 µM (inactive). Further, the GI50 in assay [13] was 11.2 µM (inactive); in [14] it was 22.4 µM (inactive); in [15] it was 20.9 µM (inactive); in assay [16], 12.2 µM (inactive); in assay [17], 10.4 µM (inactive).
For `O=C1/C(=N/N=C(c2ccccc2)c2ccccc2)c2ccccc2-c2ccccc21`, the GI50 was > 100 µM (inactive) in [1]; 65 µM (inactive) in assay [2]; > 100 µM (inactive) in [3]; 52.1 µM (inactive) in [4]; 25.2 µM (inactive) in assay [5]; > 100 µM (inactive) in assay [6]. Besides, the GI50 was > 100 µM (inactive) in assay [18]; 31.6 µM (inactive) in assay [7]; 78.5 µM (inactive) in assay [9]; 38.5 µM (inactive) in [10]; 74 µM (inactive) in [11]; > 100 µM (inactive) in assay [12]. In addition, the GI50 was 64 µM (inactive) in assay [13]; > 100 µM (inactive) in assay [14]; 51.2 µM (inactive) in assay [19]; > 100 µM (inactive) in [15]; 85.7 µM (inactive) in [16]; 55.2 µM (inactive) in assay [17].
With `C[C@@H](CO)C1=C(O)C(=O)c2c(ccc3c2CCCC3(C)C)C1=O`, the GI50 in assay [1] was 55.3 µM (inactive); in [2] it was 37.1 µM (inactive); in assay [3], 33.5 µM (inactive); in assay [4] it was 45.5 µM (inactive); in [5], 21.2 µM (inactive); in [6] it was 17.7 µM (inactive). Besides, the GI50 in assay [7] is 61.4 µM (inactive); in assay [8] it was 45.1 µM (inactive); in assay [9] it was 15.9 µM (inactive); in assay [10], 28.2 µM (inactive); in [11], 22.1 µM (inactive); in assay [12], 35.2 µM (inactive). For the same compound, the GI50 in assay [13] was 31.8 µM (inactive); in assay [14] it was 32.2 µM (inactive); in [15], 28.3 µM (inactive); in assay [16], 14.1 µM (inactive); in assay [17] it was 23.2 µM (inactive).
As for `O=C1O/C(=C(/Cl)c2cccc3ccccc23)c2ccccc21`, the GI50 was 82.2 µM (inactive) in assay [1]; > 100 µM (inactive) in assay [2]; > 100 µM (inactive) in [3]; > 100 µM (inactive) in assay [4]; > 100 µM (inactive) in [5]; > 100 µM (inactive) in assay [6]. The GI50 in assay [18] was 0.735 µM (active); in assay [8], > 100 µM (inactive); in assay [9] it was > 100 µM (inactive); in assay [11] it was > 100 µM (inactive); in [12], > 100 µM (inactive); in [13] it was > 100 µM (inactive). Further, the GI50 is 81.1 µM (inactive) in assay [14]; > 100 µM (inactive) in assay [19]; > 100 µM (inactive) in assay [15]; 96.8 µM (inactive) in assay [16]; > 100 µM (inactive) in [17].
